From paper PMC11050443, “Discovery of Strong 3-Nitro-2-Phenyl-2H-Chromene Analogues as Antitrypanosomal Agents and Inhibitors of Trypanosoma cruzi Glucokinase” (International Journal of Molecular Sciences, 2024)
Where two headings read alike, the source gives them in different places.

Assays:
[1] = test system: T. brucei brucei (427 strain) bloodstream form; assay: In vitro T. brucei biological assay (Alamar blue); format: cell-based, Trypanosoma brucei brucei; settings: for anti-T. brucei activity (in words): T. brucei brucei 427 strain bloodstream form
Experimental: The in vitro cell culture preparation of T. brucei brucei (427 strain) trypomastigote bloodstream form followed by treatment with inhibitors has recently been described by Ajayi and colleagues. The 3-nitro-2-phenyl-2H-chromene compounds (inhibitors) that were prepared as 10.0 mM stock solutions in 100% DMSO were thawed from −80 °C to room temperature. HMI-9 medium [Iscove’s modification of DMEM supplemented with 10% FBS, 10% serum plus (SAFC), 0.05 mM bathocuproinesulfonate, 1.5 mM L-cysteine, 1.0 mM hypoxanthine, 0.2 mM β-mercaptoethanol, 0.16 mM thymidine, and 1.0 mM pyruvate] was prepared. In a sterile, round-bottom, 96-well microplate, 100 μL of HMI-9 medium was added to each well. A volume of 2.0 μL of a given compound plus a volume of 98.0 μL of fresh media were both added to a well in the first row of the 96-well microplate; this was performed for each compound to be tested. Solutions were mixed with a micropipette followed by transfer of 100 μL to the next row and repeated. The compound solutions ranged from 0.0781–10.0 μM and this was accomplished by serial dilution using a 2-fold dilution. T. brucei parasites were centrifuged for 10 min at 900× g (without centrifuge breaks). The media was carefully discarded by aspiration and the parasites were resuspended in warm media. Parasites were counted in a Newbauer chamber. Afterwards, the parasites were diluted to 50,000 cells/mL (5000 cells/well) and 100 μL was added to each well of the 96-well microplate using a multichannel pipette. After 48 h, 20.0 μL of Alamar blue was added to each well and the plate was placed into an incubator for 4 h at 37 °C. Fluorescence readings were measured using a Victor Nivo multimode microplate reader (PerkinElmer, Inc.; Shelton, CT, USA) at λex = 530 nm and λem = 590 nm. All measurements were performed in triplicate and IC50 determinations for percent growth inhibition were carried out using GraphPad Prism 10.0. The detergent SDS was used as a positive control and its final solution concentration was 0.5%. Three control experiments were performed, as follows: (a) parasites alone, (b) parasites and 0.5% SDS, and (c) the medium alone.

[2] = biological target: T1, TcGlcK (Trypanosoma cruzi glucokinase) (Trypanosoma cruzi, UniProt Q4E4E1); assay: TcGlcK primary screening assay (LmG6PDH-coupled, Dixon plots); format: biochemical; settings: for Mode of TcGlcK inhibition: Cornish-Bowden method, Dixon plots of [D-Glc]/V versus inhibitor concentration; for Ki: Dixon plots, 0.4, 0.6, 0.8 mM D-glucose, N = 1 unless marked, N = 3 for compounds 1, 4, 9, 11
T1 construct: made in house; host or cells: Escherichia coli BL21(DE3)
T1 sequence (Q4E4E1 1-376): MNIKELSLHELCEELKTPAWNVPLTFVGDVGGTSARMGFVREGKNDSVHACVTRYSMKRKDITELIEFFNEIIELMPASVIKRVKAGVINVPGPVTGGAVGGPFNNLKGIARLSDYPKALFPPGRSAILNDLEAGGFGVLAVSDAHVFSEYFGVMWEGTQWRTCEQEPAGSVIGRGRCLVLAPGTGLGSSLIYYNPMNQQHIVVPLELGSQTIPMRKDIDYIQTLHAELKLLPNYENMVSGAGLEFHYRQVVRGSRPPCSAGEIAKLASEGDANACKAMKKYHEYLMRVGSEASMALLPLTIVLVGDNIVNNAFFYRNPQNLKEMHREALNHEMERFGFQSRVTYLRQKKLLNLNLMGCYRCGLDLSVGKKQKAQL
Experimental: A primary screening assay was carried out for TcGlcK with the 3-nitro-2-phenyl-2H-chromene analogues. The data was subsequently processed for respective Ki values in order to assess enzyme inhibition. […] The primary screening assay was performed with the substrate D-glucose in various concentrations of 0.4 mM, 0.6 mM, and 0.8 mM to produce Dixon plots with different slopes. Each of the 3-nitro-2-phenyl-2H-chromene analogues were originally prepared at a working concentration of 1.0 mM and were dissolved in 100% DMSO. The final assay concentrations of the analogue compounds (inhibitors) ranged from 0.0–10.0 μM. The analogue compounds were pre-incubated with the enzyme system a minimum of 10 min prior to the initiation of the assay. The enzymatic reaction was carried out at room temperature (22 °C; temperature optimum) using ATP to initiate the reaction, and termination was performed after 120 s (time optimum) by stopping the reaction with the addition of an EDTA (pH 8.0) solution, to a final concentration of 100 mM. TcGlcK enzyme activity was analyzed for the production of NADPH. Each completed reaction mixture was added into a black, round-bottom microplate and scanned by a VANTAstar-F multi-mode microplate reader (BMG LABTECH, Inc.; Cary, NC, USA). The instrument was set to fluorescence mode and the wavelengths (λex = 340 nm; λem = 485 nm) were set to observe the relative fluorescence units of NADPH [40]. The enzyme-inhibition kinetics Ki value determination and the mode of inhibition was determined using the Cornish–Bowden Dixon Plot analysis method.

[3] = biological target: T2, LmG6PDH (Leuconostoc mesenteroides glucose-6-phosphate dehydrogenase) (Leuconostoc mesenteroides, UniProt P11411); assay: Confirmatory assay on the LmG6PDH enzyme-coupled system; format: biochemical; settings: for LmG6PDH inhibitory effect (in words): 20 µM compound; for inhibition at 20 µM: read-out: LmG6PDH Inh20
T2 construct: purchased Worthington Biochemical Corporation
Experimental: Two criteria were examined in order to certify on-target confirmed hits: (a) the assessment of potential inhibition to the LmG6PDH enzyme-coupled system, and (b) the precision of the assay (per inhibitor), performed in quadruplicate (N = 4). Compounds were tested in quadruplicate in a black, round-bottom 96-well microplate in which wells were filled with a buffered solution (50 mM triethanolamine, 150 mM NaCl) amounting to a total volume of 206.5 μL that contained the following reagents at final assay concentrations: LmG6PDH (6.1 μg/mL), NADP^+ (0.54 mM), ATP (0.54 mM), MgCl2 (6.9 mM), DMSO (1.0% by vol.), D-glucose-6-phosphate (0.80 mM), and a 3-nitro-2-phenyl-2H-chromene analogue (20.0 μM). The analogue compounds were pre-incubated with the enzyme system a minimum of 10 min prior to the initiation of the assay. The enzymatic reactions were initiated and terminated similarly as described in the TcGlcK primary screen (vide supra). The production of NADPH was monitored using the VANTAstar-F multi-mode microplate reader set to fluorescent mode, λex = 340 nm and λem = 485 nm, over a 120-s timeframe.

[4] = Trypanosoma brucei, 48 h, T. brucei brucei 427 strain bloodstream form growth inhibition, N = 3
[5] = Trypanosoma brucei, bound stated in the text for the top seven anti-T. brucei compounds
[6] = percentage of inhibition at 20 µM compound in comparison to controls, N = 4
[7] = T. brucei brucei 427 strain bloodstream form growth inhibition, 48 h, N = 3

T2 sequence (P11411 whole entry): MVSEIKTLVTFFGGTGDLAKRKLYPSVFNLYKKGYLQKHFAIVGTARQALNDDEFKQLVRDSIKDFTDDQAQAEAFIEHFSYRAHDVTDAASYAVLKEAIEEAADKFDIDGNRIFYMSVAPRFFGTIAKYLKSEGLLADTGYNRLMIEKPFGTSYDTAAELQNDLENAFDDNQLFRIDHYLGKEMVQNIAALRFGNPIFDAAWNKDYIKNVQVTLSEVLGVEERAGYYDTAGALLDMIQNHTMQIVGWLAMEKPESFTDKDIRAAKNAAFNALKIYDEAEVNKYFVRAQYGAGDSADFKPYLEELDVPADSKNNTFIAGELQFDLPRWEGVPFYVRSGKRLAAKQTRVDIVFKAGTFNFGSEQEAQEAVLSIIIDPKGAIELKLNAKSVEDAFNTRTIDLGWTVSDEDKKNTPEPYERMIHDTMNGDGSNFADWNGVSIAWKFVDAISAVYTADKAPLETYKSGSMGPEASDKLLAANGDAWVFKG

Row | SMILES | anti-T. brucei activity (in words) [1] | IC50 [1, 4] [nM] | IC50 [1, 5] [nM] | Mode of TcGlcK inhibition [2] | Ki [2] [nM] | LmG6PDH inhibitory effect (in words) ([3]; N = 4) | inhibition at 20 µM [3, 6] [%] | IC50 [1, 7] [nM] | inhibition at 20 µM [3] [%]
1 | CCOc1ccc(C2Oc3ccc(Br)cc3C=C2[N+](=O)[O-])cc1OC (centres unmarked) [Compound 1, 6-Bromo-2-(4-ethoxy-3-methoxyphenyl)-3-nitro-2H -chromene] | nanomolar potency | 610 ± 30 | < 750 | uncompetitive inhibition | 6200 ± 1200 | did not observe any significant LmG6PDH inhibitory effects | 15.4 ± 0.1 |  | 
2 | CCOc1ccc(C2Oc3ccc(Br)cc3C=C2[N+](=O)[O-])cc1OCC (centres unmarked) [Compound 2, 6-Bromo-2-(3,4-diethoxyphenyl)-3-nitro-2H -chromene] |  | 1190 ± 40 |  |  | 46000 |  | 0 |  | 
3 | COc1ccc(C2Oc3c(cc(Br)cc3OC)C=C2[N+](=O)[O-])cc1OC (centres unmarked) [Compound 3, 6-Bromo-2-(3,4-dimethoxyphenyl)-8-methoxy-3-nitro-2H -chromene] | nanomolar potency | < 550 | < 750 |  | 24000 |  | 0 | 520 ± 50 | 
4 | COc1ccc(C2Oc3ccc(Br)cc3C=C2[N+](=O)[O-])cc1OC (centres unmarked) [Compound 4, 6-Bromo-2-(3,4-dimethoxyphenyl)-3-nitro-2H -chromene] | nanomolar potency | < 550 | < 750 | mixed-mode inhibition | 5500 ± 1800 | did not observe any significant LmG6PDH inhibitory effects | 12.1 | 440 ± 30 | 
5 | COc1ccc(C2Oc3c(Br)cc(Br)cc3C=C2[N+](=O)[O-])cc1OC (centres unmarked) [Compound 5, 6,8-Dibromo-2-(3,4-dimethoxyphenyl)-3-nitro-2H -chromene] | nanomolar potency | < 550 | < 750 |  | 35000 |  | 0 | 420 ± 40 | 
6 | CCOc1ccc(C2Oc3c(Br)cc(Br)cc3C=C2[N+](=O)[O-])cc1OC (centres unmarked) [Compound 6, 6,8-Dibromo-2-(4-ethoxy-3-methoxyphenyl)-3-nitro-2H -chromene] | nanomolar potency | < 550 | < 750 |  | 6100 | did not observe any significant LmG6PDH inhibitory effects | 16.1 | 360 ± 60 | 
7 | O=[N+]([O-])C1=Cc2cc(Br)cc(Br)c2OC1c1c(Cl)cccc1Cl (centres unmarked) [Compound 7, 2-(2,6-Dichlorophenyl)-6,8-dibromo-3-nitro-2H -chromene] | nanomolar potency | 900 ± 330 |  |  | 50000 |  | 0 |  | 
8 | CCOc1ccc(C2Oc3c(cc(Br)cc3OC)C=C2[N+](=O)[O-])cc1OC (centres unmarked) [Compound 8, 6-Bromo-2-(4-ethoxy-3-methoxyphenyl)-8-methoxy-3-nitro-2H -chromene] | nanomolar potency | 740 ± 140 | < 750 |  | 30000 |  | 0 |  | 
9 | CCOc1ccc(C2Oc3c(Cl)cc(Cl)cc3C=C2[N+](=O)[O-])cc1OCC (centres unmarked) [Compound 9, 6,8-Dichloro-2-(3,4-diethoxyphenyl)-3-nitro-2H -chromene] | nanomolar potency | 660 ± 50 | < 750 | mixed-mode inhibition | 12300 ± 5500 | did not observe any significant LmG6PDH inhibitory effects | 10.1 ± 0.1 |  | 
10 | CCOc1ccc(C2Oc3ccccc3C=C2[N+](=O)[O-])cc1OCC (centres unmarked) [Compound 10, 2-(3,4-Diethoxyphenyl)-3-nitro-2H -chromene] |  | 1120 ± 300 |  |  | 23000 |  |  |  | 0
11 | O=[N+]([O-])C1=Cc2cc(Br)ccc2OC1c1ccccc1Cl (centres unmarked) [Compound 11, 6-Bromo-2-(2-chlorophenyl)-3-nitro-2H -chromene] | nanomolar potency | 860 ± 200 |  | noncompetitive inhibition | 20000 ± 4300 | did not observe any significant LmG6PDH inhibitory effects | 15 ± 0.1 |  | 
12 | O=[N+]([O-])C1=Cc2ccccc2OC1c1c(Cl)cccc1Cl (centres unmarked) [Compound 13, 2-(2,6-Dichlorophenyl)-3-nitro-2H -chromene] |  | 1280 ± 100 |  |  | 25000 |  | 0 |  | 
